In PMC11066877, “Development and Characterization of Novel FAP-Targeted Theranostic Pairs: A Bench-to-Bedside Study” (Research, 2023):
Like-named read-outs stand apart in the source and are kept apart here.

Legend:
[1] = Ex vivo biodistribution of [177Lu]Lu-DOTA-FD3 in HT1080-FAP tumor models; design: species or system mice; settings: nude (thymus-free), mouse, 1.11 MBq, total radioactivity
Text: (§1) After imaging collection and image reconstruction, samples from euthanized experimental mice, including blood and multiple significant organs, were harvested and weighed. The radioactivity in each collected tissue was counted using an automated gamma counter (Wizard 2480, PerkinElmer) and the accumulation of radioactivity in different tissues and organs was quantified and expressed as %ID/g (mean ± SD). [^177Lu]Lu-DOTA-FD1 (~1.11 MBq, n = 3), [^177Lu]Lu-DOTA-FD2 (~1.11 MBq, n = 3), and [^177Lu]Lu-DOTA-FD3 (~1.11 MBq, n = 3) were injected into the tail vein of free nude mice at 6 h, 24 h, and 24 h for ex vivo biodistribution to verify the circulation time of the 3 probes in vivo. Biodistribution data from tumor-bearing mice injected with [^177Lu]Lu-DOTA-FD3 at 45 h (~1.11 MBq, n = 4) and 90 h (~1.11 MBq, n = 3) validated the prolonged enrichment of the probe at the tumor site. At the end of each probe imaging and radioactivity counting study, tumor tissues were fixed in paraformaldehyde tissue fixative. Briefly, sections of 10 μm were cut and stained for H&E following the standard protocols. IHC staining with a FAP antibody (ab227703, Abcam) was performed only on tumor tissues following accepted techniques.

[2] = Ex vivo biodistribution of 177Lu-labeled radioligands in tumor-free nude mice; settings: mouse, blood, intravenous, 1.11 MBq, total radioactivity, 24 h p.i., read-out: accumulation in the blood pool (biodistribution)
Text: as §1

[3] = Stability of 177Lu-labeled radiopharmaceuticals in FBS and PBS; assay type: in vitro ADME; settings: 50% FBS and 50% PBS, checked at 2 h and 24 h
Experimental: To perform ^68Ga-labeling, approximately 20 nmol of FD1, FD2, or FD3 was dissolved in 20 μl of dimethyl sulfoxide and 230 μl of sterile deionized water. This mixture was added to 400 μl of ^68GaCl3 solution (containing 37 MBq) in 0.1 M HCl, with pH adjusted to 4.0 using 0.1 M NH4OAC. The mixture was incubated at 100 °C for 10 min without any additional purification steps. For ^177Lu-labeling, high-purity radionuclide ^177LuCl3 in 0.04 M HCl (3.9 GBq in 97 μl) was purchased from ITM (Munich, Germany). ^177LuCl3 solution (555 MBq in 0.04 M HCl) was added to 500 μl of 1M NH4OAC (pH = 5), followed by the addition of 375 nmol of FD1, FD2, or FD3. The solution was shaken at a temperature of 100 °C for a duration of 30 min. Instant thin-layer chromatography (iTLC; Eckert & Ziegler Radiopharma Inc.) was used to evaluate the RCP of the final products. For iTLC, the mobile phase consisted of 1 M NH4OAC and methyl alcohol in a ratio of 1:1. The final solution must be adjusted to pH 7.0 before being injected into the experimental mice via the tail vein. The stability of ^177Lu-labeled radiopharmaceuticals was evaluated in a mixture of 50% FBS and 50% PBS at 2 h and 24 h after preparation. In the process of preparing each [^68Ga]Ga-DOTA-FD1 for clinical imaging, the end product underwent sterilization by passing it through a 0.22-μm Millipore filter.

HT1080-FAP tumor = experiment: FAP-targeted radioligand therapy in HT1080-FAP tumor models; assay type: in vivo, mice
Experimental: (§2) HT1080-FAP tumor models with higher levels of FAP expression were utilized in this study. Tumor-bearing mice were subjected to therapy experiments when the tumor volume reached 50 to 180 mm^3. Tumor models with different tumor volumes were injected with different therapeutic doses. Mice bearing HT1080-FAP tumors of slightly larger tumor volumes were randomly assigned into 4 groups (n = 5 per group): control group and treatment groups with 800 μCi of [^177Lu]Lu-DOTA-FD1, 400 μCi of [^177Lu]Lu-DOTA-FD3, and 600 μCi [^177Lu]Lu-DOTA-FD3. Mice bearing HT1080-FAP tumors of slightly smaller tumor volumes were also divided into 4 groups (n = 6 per group): control group and treatment groups with 200 μCi of [^177Lu]Lu-DOTA-FD1, 200 μCi of [^177Lu]Lu-DOTA-FD2, and 200 μCi of [^177Lu]Lu-DOTA-FD3. Tumor volume and mice body weight were examined daily after a single-dose injection. Weight monitoring is expressed as a percentage of initial weight on the measurement day. Tumor volume was measured as half of the length × width squared times. Mice were euthanized when the tumor volume exceeded 1,500 mm^3, the tumor ruptured, or when it lost more than 20% of its body weight. T3M-4 tumor models with abundant stroma were established to validate the therapeutic efficacy of [^177Lu]Lu-DOTA-FD3. When the tumor volume grew to 100 to 150 mm^3, the mice were randomly divided into 2 groups (n = 7 per group): free ^177Lu treatment group and 500 μCi [^177Lu]Lu-DOTA-FD3 treatment group. Tumor volume and mice body weight were examined every 2 days.

T3M-4 tumor = experiment: Radioligand therapy in T3M-4 pancreatic cancer models; assay type: in vivo, mice; settings: T3M-4 models
Experimental: as §2, with “When the tumor volume grew to 100 to 150 mm^3, the mice were randomly divided into 2 groups (n = 7 per group): free ^177Lu treatment group and 500 μCi [^177Lu]Lu-DOTA-FD3 treatment group. Tumor volume and mice body weight were examined every 2 days.” left out

[4] = average tumor volume 180 mm^3 at onset, single dose 400 μCi or 600 μCi

tissue uptake at 45 h ([1]; 45 h, read-out: tumor uptake (biodistribution)): 10.5 ± 1.02 %ID/g | tissue uptake at 90 h ([1]; 90 h, read-out: tumor uptake (biodistribution)): 12.4 ± 3.12 %ID/g | tissue uptake at 45 h ([1]; blood, 45 h p.i., read-out: blood pool retention (biodistribution)): 16.3 ± 2.5 %ID/g | tissue uptake at 90 h ([1]; blood, 90 h p.i., read-out: blood pool retention (biodistribution)): 11.5 ± 1.54 %ID/g | tissue uptake at 24 h [2]: 28.1 ± 3.52 %ID/g | stable in FBS and PBS, no significant demetallation [3]: at least 24 h | mice weight versus free 177Lu treatment group (T3M-4 tumor; 500 μCi): slightly dropped
SMILES: CCCCCC(=O)N[C@H]1CSCc2cc(CSCCNC(=O)[C@H](CCCCNC(=O)CCCc3ccc(I)cc3)NC(=O)[C@@H](NC(=O)[C@H](CCSC)NC(=O)CN3CCN(CC(=O)O)CCN(CC(=O)O)CCN(CC(=O)O)CC3)C(C)C)cc(c2)CSC[C@@H](C(=O)O)NC(=O)[C@H](Cc2ccccc2)NC(=O)[C@H](CCC(N)=O)NC(=O)[C@H]([C@@H](C)O)NC(=O)[C@@H]2CCCN2C(=O)[C@@H]2CCCN2C1=O [[^177Lu]Lu-DOTA-FD3, metal not drawn]
tumor growth at the end of the study (HT1080-FAP tumor; average tumor volume 50 mm^3 at onset, single dose 200 μCi): substantially inhibited the tumor growth | mice that acquired complete response (CR) (HT1080-FAP tumor; average tumor volume 50 mm^3 at onset, single dose 200 μCi, 6 mice per group): 3 out of the 6 | tumor relapse (HT1080-FAP tumor; [4]): relapsed from day 14 onward | tumor volume change after treatment (HT1080-FAP tumor; [4]): began to shrink from day 2 | tumor volume until the end of the observation (T3M-4 tumor; tumor volume around 135 mm^3 at onset, [177Lu]Lu-DOTA-FD3 at 500 μCi): satisfactorily controlled
